Activity calls are given as the source filed them. The calls are words filed in the database; no cut-off is given here.
Experiments:
MCF7 [1] = experiment: Inhibition of cell migration in human MCF7 cells assessed as ratio of migrated cells at 25 nM incubated for 24 hrs by crystal violet staining based inverted microscopic analysis (reference value: 100%); assay type: functional; set-up: scale not given: the % may be the effect or the level left
[2] = Toxicity in female BALB/c nude mouse xenografted with human SK-OV-3 cells assessed as animal death at 15 mg/kg, administered via tail vein for 5 days and measured daily; assay type: organism-based; details: in vivo, iv, 120 h, time 5 day
SK-OV-3 [3] = experiment: Inhibition of cell migration in human SK-OV-3 cells assessed as ratio of migrated cells at 10 nM incubated for 24 hrs by Transwell assay (reference value: 100 %); assay type: functional; set-up: scale not given: the % may be the effect or the level left
SK-OV-3 [4] = experiment: Induction of cell cycle arrest in human SK-OV-3 cells assessed as increase in G2/M phase cells at 40 nM incubated for 24 hrs by PI staining based flow cytometric analysis (reference value: 24.6 +/- 2.0%); assay type: functional
MCF7 [5] = experiment: Inhibition of cell migration in human MCF7 cells assessed as increase in cell density at 0 to 10 nM incubated for 24 hrs by wound healing assay; assay type: functional, cell-based; details: dose 0-10 nM
MCF7 [6] = experiment: Inhibition of cell migration in human MCF7 cells assessed as ratio of migrated cells at 3.125 nM incubated for 24 hrs by crystal violet staining based inverted microscopic analysis (reference value: 100%); assay type: functional; set-up: scale not given: the % may be the effect or the level left
MCF7 [7] = experiment: Inhibition of cell migration in human MCF7 cells assessed as wound closure at 5 nM incubated for 24 hrs by wound healing assay (reference value: 44.5 +/- 8.8%); assay type: functional; set-up: scale not given: the % may be the effect or the level left
MCF7 [8] = experiment: Inhibition of cell migration in human MCF7 cells assessed as wound closure ratio at 2.5 nM incubated for 24 hrs by wound healing assay (reference value: 100%); assay type: functional; set-up: scale not given: the % may be the effect or the level left
[9] = Toxicity in female BALB/c nude mouse xenografted with human SK-OV-3 cells assessed as effect on physiological status at 15 mg/kg, administered via tail vein for 5 days and measured daily; assay type: organism-based; details: in vivo, iv, 120 h, time 5 day
SK-OV-3 [10] = experiment: Inhibition of cell migration in human SK-OV-3 cells assessed as decrease in cell density at 25 to 50 nM incubated for 24 hrs by wound healing assay; assay type: functional, cell-based; details: dose 25-50 nM
SK-OV-3 [11] = experiment: Induction of apoptosis in human SK-OV-3 cells assessed as increase in apoptotic cells incubated for 48 hrs by IncuCyte live-cell imaging analysis; assay type: functional, cell-based; details: dose 2.5-40 nM
[12] = Toxicity in female BALB/c nude mouse xenografted with human SK-OV-3 cells assessed as drug tolerance reduction in food intake at 30 mg/kg, administered via tail vein for 5 days and measured daily; assay type: organism-based; details: in vivo, iv, 120 h, time 5 day
SK-OV-3 [13] = experiment: Antitumor activity against human SK-OV-3 cells xenografted in female BALB/c nude mouse assessed as tumor growth inhibition at 10 mg/kg, […] via tail vein once every 2 to 3 days; assay type: functional; details: time 2-3 day, read-out: TGI
SK-OV-3 [14] = experiment: Inhibition of cell migration in human SK-OV-3 cells assessed as reduction in wound closure at 6.25 nM incubated for 24 hrs by wound healing assay (reference value: 21.8 +/- 7.6%); assay type: functional; details: SK-OV-3, 24 h, values are per cent of control
MCF7 [15] = experiment: Inhibition of cell migration in human MCF7 cells assessed as wound closure at 20 nM incubated for 24 hrs by wound healing assay (reference value: 44.5 +/- 8.8%); assay type: functional; set-up: scale not given: the % may be the effect or the level left
SK-OV-3 [16] = experiment: Inhibition of cell migration in human SK-OV-3 cells incubated for 24 hrs by Transwell assay; assay type: functional, cell-based; details: dose 10-20 nM
MCF7 [17] = experiment: Inhibition of cell migration in human MCF7 cells assessed as area of migrated cells at 3.125 nM incubated for 24 hrs by crystal violet staining based inverted microscopic analysis (reference value: 18.5 +/- 0.3 mm^3); assay type: functional
MCF7 [18] = experiment: Induction of apoptosis in human MCF7 cells assessed as downregulation of Bax expression at 25 to 50 nM incubated for 24 hrs by Western blotting analysis; assay type: functional, cell-based; details: dose 25-50 nM
SK-OV-3 [19] = experiment: Antitumor activity against human SK-OV-3 cells xenografted xenografted in female BALB/c nude mouse assessed as decrease in Ki-67 expression level in tumor at 10 mg/kg, […] via tail vein once every 2 to 3 days by immunohistochemistry analysis; assay type: functional, organism-based; details: time 2-3 day
[20] = Toxicity in female BALB/c nude mouse xenografted with human SK-OV-3 cells assessed as pathological changes in spleen at 5 to 10 mg/kg, […] via tail vein once every 2 to 3 days by H and E staining based analysis; assay type: organism-based; details: in vivo, dose lower 5 mg/kg, time lower 2 day, dose upper 10 mg/kg, time upper 3 day
MDA-MB-231 = experiment: Antitumor activity against human MDA-MB-231 cells assessed as reduction in cell viability incubated for 72 hrs by CCK8 assay; details: MDA-MB-231, 72 h
SK-OV-3 [21] = experiment: Induction of apoptosis in human SK-OV-3 cells assessed as Bax expression at 25 to 50 nM incubated for 24 hrs by Western blotting analysis; assay type: functional, cell-based; details: dose 25-50 nM
SK-OV-3 [22] = experiment: Induction of apoptosis in human SK-OV-3 cells assessed as upregulation of cleaved-caspase-3 expression incubated for 24 hrs by Western blotting analysis; assay type: functional, cell-based; details: dose 25-100 nM
MCF7 [23] = experiment: Inhibition of cell migration in human MCF7 cells assessed as area of migrated cells at 25 nM incubated for 24 hrs by crystal violet staining based inverted microscopic analysis (reference value: 18.5 +/- 0.3 mm^3); assay type: functional
MCF7 [24] = experiment: Induction of apoptosis in human MCF7 cells assessed as downregulation of Bcl-2 expression incubated for 24 hrs by Western blotting analysis; assay type: functional, cell-based
MCF7 [25] = experiment: Antitumor activity against human MCF7 cells assessed as reduction in cell viability incubated for 72 hrs by CCK8 assay; assay type: functional, cell-based; details: MCF7, 72 h
Tubulin (Homo sapiens) = Tubulin (Homo sapiens) (UniProt P68371+Q9H4B7+P0DPH7+P68366+Q13509+Q71U36+P04350+Q3ZCM7+P07437+P68363+Q9BQE3+Q6PEY2+Q13885+Q9BVA1+Q9BUF5); experiment: Inhibition of tubulin polymerization in human SK-OV-3 cells assessed as destruction of microtubule network at 20 nM incubated for 18 hrs by Alexa Fluor 488 staining based confocal immunofluorescent microscopic analysis; assay type: cell-based
[26] = Toxicity in female BALB/c nude mouse xenografted with human SK-OV-3 cells assessed as effect on body weight at 5 to 10 mg/kg, […] via tail vein once every 2 to 3 days; assay type: organism-based; details: in vivo, dose lower 5 mg/kg, time lower 2 day, dose upper 10 mg/kg, time upper 3 day
SK-OV-3 [27] = experiment: Induction of cell cycle arrest in human SK-OV-3 cells assessed as increase in G2/M phase cells at 20 nM incubated for 24 hrs PI staining based flow cytometric analysis (reference value: 24.6 +/- 2.0%); assay type: functional
MCF7 [28] = experiment: Induction of apoptosis in human MCF7 cells assessed as upregulation of cleaved-caspase-3 expression incubated for 24 hrs by Western blotting analysis; assay type: functional, cell-based
MCF7 [29] = experiment: Inhibition of colony formation in human MCF7 cells at 3.125 to 50 nM by crystal violet staining based assay; assay type: functional, cell-based; details: dose 3.125-50 nM, time 0-72 hrs
[30] = Toxicity in female BALB/c nude mouse xenografted with human SK-OV-3 cells assessed as drug tolerance by measuring reduction in water intake at 30 mg/kg, administered via tail vein for 5 days and measured daily; assay type: organism-based; details: in vivo, iv, 120 h, time 5 day
[31] = Toxicity in female BALB/c nude mouse xenografted with human SK-OV-3 cells assessed as drug tolerance by measuring lethargy at 30 mg/kg, administered via tail vein for 5 days and measured daily; assay type: organism-based; details: in vivo, iv, 120 h, time 5 day

For `CNc1nc(N2CCCc3cc(OC)ccc32)c2cc(F)ccc2n1`, the Activity (MCF7 [1]) was 13.2%, the Activity [2] was “Non-toxic” and the Activity (SK-OV-3 [3]) was 22.7%. For the same compound, the Activity (SK-OV-3 [4]) was 94.5%, the inhibition (MCF7 [5]) was “Active” and the Activity (MCF7 [6]) was 94.5%. For the same compound, the Activity (MCF7 [7]) was 43.3%, the Activity (MCF7 [8]) was 98.8% and the Activity [9] was “Toxic”. The inhibition (SK-OV-3 [10]) was “Active”, the Activity (SK-OV-3 [11]) was “Dose-dependent-effect” and the Activity [12] was “Toxic”. For the same compound, the inhibition in vivo at 10 mg/kg (SK-OV-3 [13]) was 46.2%, the response, % of control at 0.00625 µM (SK-OV-3 [14]) was 18.4% and the Activity (MCF7 [15]) was 32.2%. The inhibition (SK-OV-3 [16]) was “Dose-dependent-effect”, the Activity (MCF7 [17]) was 17.5 mm3 and the Activity (MCF7 [18]) was “inactive”. The Activity (SK-OV-3 [19]) was “Active”, the Activity [20] was “Non-toxic” and the IC50 (MDA-MB-231) was 1 nM. For the same compound, the Activity (SK-OV-3 [21]) was “inactive”, the Activity (SK-OV-3 [22]) was “Dose-dependent-effect” and the Activity (MCF7 [23]) was 2.4 mm3. The Activity (MCF7 [24]) was “Active”, the IC50 (MCF7 [25]) was 0.4 nM and the inhibition (Tubulin (Homo sapiens)) was “Active”. For the same compound, the Activity [26] was “Non-toxic”, the Activity (SK-OV-3 [27]) was 90.6% and the Activity (MCF7 [28]) was “Dose-dependent-effect”. For the same compound, the inhibition (MCF7 [29]) was “Time-dependent-effect”, the Activity [30] was “Toxic” and the Activity [31] was “Toxic”.
